Test results published in patent US11319315B2, “Cyclohexyl acid triazole azoles as LPA antagonists” (BRISTOL-MYERS SQUIBB COMPANY, priority 2017, dated 2022).
Where two headings read alike, the source gives them in different places.

Target: T1, human LPA1 (Homo sapiens, UniProt Q92633)
T1 construct: expressed in transfected cells; host or cells: Chinese hamster ovary (CHO) cells
Experiment: LPA1 functional antagonist assay (LPA-induced calcium flux in CHO cells overexpressing human LPA1)
Format: cell-based
Conditions: read-out: hLPA1 IC50
Method: The effectiveness of compounds of the present invention as LPA1 inhibitors can be determined in an LPA1 functional antagonist assay as follows:
Chinese hamster ovary cells overexpressing human LPA1 were plated overnight (15,000 cells/well) in poly-D-lysine coated 384-well microplates (Greiner bio-one, Cat #781946) in DMEM/F12 medium (Gibco, Cat #11039). Following overnight culture, cells were loaded with calcium indicator dye (AAT Bioquest Inc, Cat #34601) for 30 minutes at 37° C. The cells were then equilibrated to room temperature for 30 minutes before the assay. Test compounds solubilized in DMSO were transferred to 384 well non-binding surface plates (Corning, Cat #3575) using the Labcyte Echo acoustic dispense and diluted with assay buffer [IX HBSS with calcium/magnesium (Gibco Cat #14025-092), 20 mM HEPES (Gibco Cat #15630-080) and 0.1% fatty acid free BSA (Sigma Cat #A9205)] to a final concentration of 0.5% DMSO. Diluted compounds were added to the cells by FDSS6000 (Hamamatsu) at final concentrations ranging from 0.08 nM to 5 μM. and were then incubated for 20 min at room temperature at which time LPA (Avanti Polar Lipids Cat #857130C) was added at final concentrations of 10 nM to stimulate the cells. The compound IC50 value was defined as the concentration of test compound which inhibited 50% of the calcium flux induced by LPA alone. IC50 values were determined by fitting data to a 4-parameter logistic equation (GraphPad Prism, San Diego Calif.).

[1] = inhibition of calcium flux induced by 10 nM LPA, CHO cells overexpressing human LPA1

T1 sequence (Q92633 whole entry): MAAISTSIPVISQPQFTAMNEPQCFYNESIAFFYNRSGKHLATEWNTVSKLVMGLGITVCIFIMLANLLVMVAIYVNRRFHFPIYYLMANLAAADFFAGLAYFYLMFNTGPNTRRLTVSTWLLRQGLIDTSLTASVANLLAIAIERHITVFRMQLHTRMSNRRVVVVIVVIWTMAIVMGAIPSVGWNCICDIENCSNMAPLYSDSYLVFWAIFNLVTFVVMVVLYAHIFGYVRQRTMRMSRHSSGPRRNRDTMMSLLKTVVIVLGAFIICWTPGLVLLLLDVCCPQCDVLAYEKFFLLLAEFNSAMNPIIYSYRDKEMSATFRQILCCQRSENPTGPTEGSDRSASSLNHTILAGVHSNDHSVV

Row | IC50 [1] | IC50 | SMILES
1 | 0.135 µM |  | Cc1nc(-c2nnn(C)c2Cn2cc(COc3ccccc3)nn2)ccc1O[C@H]1CCC[C@H](C(=O)O)C1 [Example 83]
2 | 1.1 µM |  | Cc1nc(-c2nnn(C)c2Cn2nnc(S(C)(=O)=O)n2)ccc1O[C@H]1CCC[C@H](C(=O)O)C1 [Example 343, (1S,3S)-3-[(6-{5-[(5-methane-sulfonyl-2H-1,2,3,4-tetrazol-2-yl)methyl]-1-methyl-1H-1,2,3-triazol-4-yl}-2-methylpyridin-3-yl)oxy]cyclohexane-1-carboxylic acid]
3 |  | 0.035 µM | CCc1nc(-c2nnn(C)c2CNc2nc(C3CCCC3)ns2)ccc1O[C@H]1CCC[C@H](C(=O)O)C1 [Example 393, (1S,3S)-3-((6-(5-(((3-cyclopentyl-1,2,4-thiadiazol-5-yl)amino)methyl)-1-methyl-1H-1,2,3-triazol-4-yl)-2-ethylpyridin-3-yl)oxy)cyclohexane-1-carboxylic acid]
4 | 0.0254 µM |  | Cc1nc(-c2nnn(C)c2CNc2noc(C3CCCC3)n2)ccc1O[C@H]1CCC[C@H](C(=O)O)C1 [Example 176]
5 | 0.047 µM |  | Cc1nc(-c2nnn(C)c2COc2ncn(-c3ccccc3)n2)ccc1O[C@H]1CCC[C@H](C(=O)O)C1 [Example 115, (1S,3S)-3-((2-methyl-6-(1-methyl-5-(((1-phenyl-1H-1,2,4-triazol-3-yl)oxy)methyl)-1H-1,2,3-triazol-4-yl)pyridin-3-yl)oxy)cyclohexane-1-carboxylic acid]
6 | 0.061 µM |  | Cc1nc(-c2nnn(C)c2Cc2noc(CCC(F)(F)F)n2)ccc1O[C@H]1CCC[C@H](C(=O)O)C1 [Example 240]
7 | 0.332 µM |  | Cc1nc(-c2nnn(C)c2Cn2nnnc2CCC2CC2)ccc1O[C@H]1CCC[C@H](C(=O)O)C1 [Example 357, (1S,3S)-3-{[6-(5-{[5-(2-cyclopro-pylethyl)-1H-1,2,3,4-tetrazol-1-yl]methyl}-1-methyl-1H-1,2,3-triazol-4-yl)-2-methylpyridin-3-yl]oxy}cyclohexane-1-carboxylic acid]
8 | 0.096 µM |  | Cc1nc(-c2nnn(C)c2Cn2nnnc2C(C)C)ccc1O[C@H]1CCC[C@H](C(=O)O)C1 [Example 298, (1S,3S)-3-{[2-methyl-6-(1-methyl-5-{[5-(propan-2-yl)-1H-1,2,3,4-tetrazol-1-yl]methyl}-1H-1,2,3-triazol-4-yl)pyridin-3-yl]oxy}cyclohexane-1-carboxylic acid]
9 | 0.099 µM |  | Cc1nc(-c2nnn(C)c2Cn2nnc(C(C)C)n2)ccc1O[C@H]1CCC[C@H](C(=O)O)C1 [Example 299, (1S,3S)-3-{[2-methyl-6-(1-methyl-5-{[5-(propan-2-yl)-2H-1,2,3,4-tetrazol-2-yl]methyl}-1H-1,2,3-triazol-4-yl)pyridin-3-yl]oxy}cyclo-hexane-1-carboxylic acid]
10 | 0.51 µM |  | Cc1nc(-c2nnn(C)c2CNc2nc(C3CC3)ns2)ccc1O[C@H]1CCC[C@H](C(=O)O)C1 [Example 103]
11 | 0.035 µM |  | CCCOC(C)c1nc(NCc2c(-c3ccc(O[C@H]4CCC[C@H](C(=O)O)C4)c(C)n3)nnn2C)no1 (mixture of isomers) [Example 218, (1S,3S)-3-((2-methyl-6-(1-methyl-5-(((5-(1-propoxyethyl)-1,2,4-oxadiazol-3-yl)amino)methyl)-1H-1,2,3-triazol-4-yl)pyridin-3-yl)oxy)cyclohexane-1-carboxylic acid]
12 | 0.277 µM |  | COc1cccc(Cc2nnnn2Cc2c(-c3ccc(O[C@H]4CCC[C@H](C(=O)O)C4)c(C)n3)nnn2C)c1 [Example 313, (1S,3S)-3-({6-[5-({5-[(3-methoxy-phenyl)methyl]-1H-1,2,3,4-tetrazol-1-yl}methyl)-1-methyl-1H-1,2,3-triazol-4-yl]-2-methylpyridin-3-yl}oxy)cyclohexane-1-carboxylic acid]
13 | 0.136 µM |  | C=C(C)c1cnn(Cc2c(-c3ccc(O[C@H]4CCC[C@H](C(=O)O)C4)c(C)n3)nnn2C)n1 [Example 271, (1S,3 S)-3-((2-methyl-6-(1-methyl-5-((4-(prop-1-en-2-yl)-2H-1,2,3-triazol-2-yl)methyl)-1H-1,2,3-triazol-4-yl)pyridin-3-yl)oxy)cyclohexane-1-carboxylic acid]
14 | 0.167 µM |  | Cc1nc(-c2nnn(C)c2Cn2nnnc2Cc2ccc(Cl)cc2)ccc1O[C@H]1CCC[C@H](C(=O)O)C1 [Example 325, (1S,3S)-3-((6-(5-((5-(4-chloro-benzyl)-1H-tetrazol-1-yl)methyl)-1-methyl-1H-1,2,3-triazol-4-yl)-2-methylpyridin-3-yl)oxy)cyclo-hexane-1-carboxylic acid]
15 | 0.11 µM |  | Cn1nnc(-c2ccc(O[C@H]3CCC[C@H](C(=O)O)C3)c(C#N)n2)c1Cn1cc(CC2CC2)nn1 [Example 92]
16 | 0.036 µM |  | CCCc1cnc(NCc2c(-c3ccc(O[C@H]4CCC[C@H](C(=O)O)C4)c(C)n3)nnn2C)o1 [Example 138]

Row | IC50 [1] | IC50 | SMILES
17 | 0.073 µM |  | Cc1nc(-c2nnn(C)c2CNc2nc(C3CCC3)ns2)ccc1O[C@H]1CCC[C@H](C(=O)O)C1 [Example 99]
18 | 0.414 µM |  | CCc1nnn(Cc2c(-c3ccc(O[C@H]4CCC[C@H](C(=O)O)C4)c(C)n3)nnn2C)n1 [Example 318, (1S,3S)-3-((6-(5-((5-ethyl-2H-tetrazol-2-yl)methyl)-1-methyl-1H-1,2,3-triazol-4-yl)-2-methylpyridin-3-yl)oxy)cyclo-hexane-1-carboxylic acid]
19 | 0.092 µM |  | Cc1nc(-c2nnn(C)c2Cn2nnc([C@H]3CCCO3)n2)ccc1O[C@H]1CCC[C@H](C(=O)O)C1 [Example 297, (1S,3S)-3-({2-methyl-6-[1-methyl-5-({5-[(2R)-oxolan-2-yl]-2H-1,2,3,4-tetrazol-2-yl}methyl)-1H-1,2,3-triazol-4-yl]pyridin-3-yl}oxy)cyclohexane-1-carboxylic acid]
20 | 0.111 µM |  | CCCCc1nnnn1Cc1c(-c2ccc(O[C@H]3CCC[C@H](C(=O)O)C3)cn2)nnn1C [Example 256, (1S,3S)-3-((6-(5-((5-butyl-1H-tetrazol-1-yl)methyl)-1-methyl-1H-1,2,3-triazol-4-yl)pyridin-3-yl)oxy)cyclohexane-1-carboxylic acid]
21 | 0.076 µM |  | CCOCc1noc(Cc2c(-c3ccc(O[C@H]4CCC[C@H](C(=O)O)C4)c(C)n3)nnn2C)n1 [Example 249, (1S,3S)-3-((6-(5-((3-(ethoxymethyl)-1,2,4-oxadiazol-5-yl)methyl)-1-methyl-1H-1,2,3-triazol-4-yl)-2-methylpyridin-3-yl)oxy)cyclohexane-1-carboxylic acid]
22 | 0.509 µM |  | CCC(C)n1cnc(OCc2c(-c3ccc(O[C@H]4CCC[C@H](C(=O)O)C4)c(C)n3)nnn2C)n1 (some centres unmarked) [Example 142]
23 | 0.088 µM |  | Cc1nc(-c2nnn(C)c2C(O)c2cn(Cc3ccccc3)nn2)ccc1O[C@H]1CCC[C@H](C(=O)O)C1 (some centres unmarked) [Example 78, (1 S,3 S)-3-((6-(5-((1-benzyl-1H-1,2,3-triazol-4-yl)(hydroxy)methyl)-1-methyl-1H-1,2,3-triazol-4-yl)-2-methylpyridin-3-yl)oxy)cyclohexane-1-carboxylic acid]
24 | 0.821 µM |  | Cc1nc(-c2nnn(C)c2Cn2cc(C(C)C)nn2)ccc1O[C@H]1CCC[C@H](C(=O)O)C1 [Example 82]
25 |  | 0.285 µM | CCCn1nnc(NCc2c(-c3ccc(O[C@H]4CCC[C@H](C(=O)O)C4)c(C)n3)nnn2C)n1 [Example 387, (1S,3S)-3-((2-methyl-6-(1-methyl-5-(((2-propyl-2H-tetrazol-5-yl)amino)methyl)-1H-1,2,3-triazol-4-yl)pyridin-3-yl)oxy)cyclohexane-1-carboxylic acid]
26 | 0.12 µM |  | COCCc1nc(NCc2c(-c3ccc(O[C@H]4CCC[C@H](C(=O)O)C4)c(C)n3)nnn2C)no1 [Example 172]
27 | 0.033 µM |  | Cc1nc(-c2nnn(C)c2CNc2noc(C3CC(C)C3)n2)ccc1O[C@H]1CCC[C@H](C(=O)O)C1 (some centres unmarked) [Example 199]
28 | 0.221 µM |  | CCC(C)n1cnc(NCc2c(-c3ccc(O[C@H]4CCC[C@H](C(=O)O)C4)c(C)n3)nnn2C)n1 (some centres unmarked) [Example 149]
29 | 2.72 µM |  | CCc1nc(N(C)Cc2c(-c3ccc(O[C@H]4CCC[C@H](C(=O)O)C4)c(C)n3)nnn2C)no1 [Example 224, (1S,3S)-3-((6-(5-(((5-ethyl-1,2,4-oxadiazol-3-yl)(methyl)amino)methyl)-1-methyl-1H-1,2,3-triazol-4-yl)-2-methylpyridin-3-yl)oxy)cyclo-hexane-1-carboxylic acid]
30 | 0.093 µM |  | CC(C)CCc1nc(NCc2c(-c3ccc(O[C@H]4CCC[C@H](C(=O)O)C4)cn3)nnn2C)no1 [Example 285, (1 S,3 S)-3-((6-(5-(((5-isopentyl-1,2,4-oxadiazol-3-yl)amino)methyl)-1-methyl-1H-1,2,3-triazol-4-yl)pyridin-3-yl)oxy)cyclohexane-1-carboxylic acid]
31 | 0.026 µM |  | Cc1nc(-c2nnn(C)c2COc2noc(C(C)C)n2)ccc1O[C@H]1CCC[C@H](C(=O)O)C1 [Example 130]

Row | SMILES | IC50 [1] | IC50
32 | CCCCOc1nnn(Cc2c(-c3ccc(O[C@H]4CCC[C@H](C(=O)O)C4)c(C)n3)nnn2C)n1 [Example 345, (1S,3S)-3-[(6-{5-[(5-butoxy-2H-1,2,3,4-tetrazol-2-yl)methyl]-1-methyl-1H-1,2,3-triazol-4-yl}-2-methylpyridin-3-yl)oxy]cyclo-hexane-1-carboxylic acid] | 0.032 µM | 
